Patent US6469028B1, “Synthesis and use of retinoid compounds having negative hormone and/or anatgonist activities” (Allergan, Inc., priority 1995, dated 2002)

Experiments:
Assay in all cases: Ligand binding assay
RARβ = target: T1, RARβ (Homo sapiens, UniProt P10826); conditions: read-out: Kd (nanomolar) RARβ
T1 sequence (P10826 1-455): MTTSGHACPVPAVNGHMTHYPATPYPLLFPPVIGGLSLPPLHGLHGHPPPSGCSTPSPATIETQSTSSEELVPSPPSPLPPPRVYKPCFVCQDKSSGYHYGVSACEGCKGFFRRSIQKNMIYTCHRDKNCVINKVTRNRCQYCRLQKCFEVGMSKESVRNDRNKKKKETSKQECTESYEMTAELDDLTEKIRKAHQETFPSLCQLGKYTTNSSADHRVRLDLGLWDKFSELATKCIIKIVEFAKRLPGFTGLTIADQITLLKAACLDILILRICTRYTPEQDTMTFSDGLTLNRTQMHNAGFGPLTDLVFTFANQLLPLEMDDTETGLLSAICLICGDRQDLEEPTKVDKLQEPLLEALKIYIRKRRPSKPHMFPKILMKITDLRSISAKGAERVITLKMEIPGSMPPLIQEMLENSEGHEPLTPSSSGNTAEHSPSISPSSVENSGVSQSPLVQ
Excerpt: (§1) A holoreceptor transactivation assay and a ligand binding assay which measure the antagonist/agonist like activity of the compounds of the invention, or their ability to bind to the several retinoid receptor subtypes, respectively, are described in published PCT Application No. WO93/11755 (particularly on pages 30-33 and 37-41) published on Jun. 24, 1993, the specification of which is also incorporated herein by reference. A description of the holoreceptor transactivation assay is also provided below.
(§2) CV1 cells (5,000 cells/well) were transfected with an RAR reporter plasmid MTV-TREp-LUC (50 ng) along with one of the RAR expression vectors (10 ng) in an automated 96-well format by the calcium phosphate procedure of Heyman et al. Cell 68: 397-406. For RXR-α and RXR-γ transactivation assays, an RXR-responsive reporter plasmid CRBPII-tk-LUC (50 ng) along with the appropriate RXR expression vectors (10 ng) was used substantially as described by Heyman et al. above, and Allegretto et al. J. Biol. Chem. 268: 26625-26633. For RXR-β transactivation assays, an RXR-responsive reporter plasmid CPRE-tk-LUC ([…]) along with RXR-β expression vector ([…]) was used as described in above. These reporters contain DRI elements from human CRBPII and certain DRI elements from promotor, respectively (see Mangelsdorf et al. The Retinoids: Biology Chemistry and Medicine, pp. 319-349, Raven Press Ltd., New York and Heyman et al., cited above). A β-galactosidase (50 ng) expression vector was used as an internal control in the transfections to normalize for variations in transfection efficiency. The cells were transfected in triplicate for 6 hours, followed by incubation with retinoids for 36 hours, and the extracts were assayed for luciferase and […] activities. The detailed experimental procedure for holoreceptor transactivations has been described in Heyman et al. above, and Allegretto et al. cited above. The results obtained in this assay are expressed in EC50 numbers, as they are also in the chimeric receptor transactivation assay. The Heyman et al. Cell 68: 397-406, Allegretto et al. J. Biol. Chem. 268: 26625-26633, and Mangelsdorf et al. The Retinoids: Biology, Chemistry, and Medicine, pp. 319-349, Raven Press Ltd., New York, are expressly incorporated herein by reference. The results of ligand binding assay are expressed in Kd numbers. (See Cheng et al. Biochemical Pharmacology 22: 3099-3108, expressly incorporated herein by reference.) […]

RARα = target: T2, RARα (Homo sapiens, UniProt P10276); set-up: expressed in transfected cells; host or cells: CV1 cells; conditions: read-out: Kd (nanomolar) RARα
T2 sequence (P10276 1-462): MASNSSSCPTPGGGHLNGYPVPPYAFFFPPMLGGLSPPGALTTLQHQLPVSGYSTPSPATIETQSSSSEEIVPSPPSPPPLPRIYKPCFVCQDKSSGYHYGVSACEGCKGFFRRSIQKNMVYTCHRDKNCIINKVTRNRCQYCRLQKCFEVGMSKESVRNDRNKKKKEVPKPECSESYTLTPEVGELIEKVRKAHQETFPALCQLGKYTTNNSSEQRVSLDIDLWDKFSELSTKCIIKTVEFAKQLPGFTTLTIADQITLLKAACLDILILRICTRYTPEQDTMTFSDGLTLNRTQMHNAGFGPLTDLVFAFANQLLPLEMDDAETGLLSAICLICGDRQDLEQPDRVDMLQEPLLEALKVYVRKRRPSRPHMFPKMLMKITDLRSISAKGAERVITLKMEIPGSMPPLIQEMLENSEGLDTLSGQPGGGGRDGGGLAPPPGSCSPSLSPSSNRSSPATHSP
Excerpt: as §1, §2

RARγ = target: T3, RARγ (Homo sapiens, UniProt P13631); set-up: expressed in transfected cells; host or cells: CV1 cells; conditions: read-out: Kd (nanomolar) RARγ
T3 sequence (P13631 1-454): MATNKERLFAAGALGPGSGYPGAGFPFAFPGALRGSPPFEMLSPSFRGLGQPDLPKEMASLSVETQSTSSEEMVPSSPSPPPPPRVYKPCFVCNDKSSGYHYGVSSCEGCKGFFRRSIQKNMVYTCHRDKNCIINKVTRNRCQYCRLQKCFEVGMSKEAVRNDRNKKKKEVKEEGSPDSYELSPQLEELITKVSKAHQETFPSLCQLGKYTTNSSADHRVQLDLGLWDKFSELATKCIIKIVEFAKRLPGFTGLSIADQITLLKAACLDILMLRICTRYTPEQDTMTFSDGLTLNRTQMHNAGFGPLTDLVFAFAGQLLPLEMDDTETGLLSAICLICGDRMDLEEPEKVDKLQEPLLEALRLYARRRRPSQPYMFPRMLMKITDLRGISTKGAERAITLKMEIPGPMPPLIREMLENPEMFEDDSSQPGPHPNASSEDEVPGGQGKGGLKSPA
Excerpt: as §1, §2

| Compound | Kd (RARβ) [nM] | Kd (RARα) [nM] | Kd (RARγ) [nM] |
| --- | --- | --- | --- |
| Cc1ccc(C2=CCC(C)(C)c3ccc(N=Nc4ccc(C(=O)O)cc4)cc32)cc1 [Compound 46b, 4-[(5,6-dihydro-5,5-dimethyl-8-(4-methylphenyl)-2-naphthalenyl)azo]-benzoic acid] | 3.7 | 250 | 5.8 |
| CC(/C=C/C=C(\C)c1ccc2c(c1)C(c1ccc(C)cc1)=CCC2(C)C)=C\C(=O)O [Compound 52, (E,E,E)-3-methyl-7-(5,6-dihydro-5,5-dimethyl-8-(4-methylphenyl)-2-naphthalenyl)-2,4,6-octatrienoic acid] | 63 | 60 | 56 |
| Cc1ccc(C2=CCC(C)(C)c3ccc(C#Cc4ccc(C(=O)O)cc4)cc32)cc1 [Compound 60, 4-[(5,6-dihydro-5,5-dimethyl-8-(4-methylphenyl)-2-naphthalenyl)ethynyl]benzoic acid] | 1.9 | 1.5 | 3.3 |
| CC(C)(C)c1ccc(C2=CCC(C)(C)c3ccc(C#Cc4ccc(C(=O)O)cc4)cc32)cc1 [Compound 61, 4-[(5,6-Dihydro-5,5-dimethyl-8-(4-(1,1-dimethylethyl)phenyl)-2-naphthalenyl)ethynyl]benzoic acid] | 15 | 96 | 16 |
| Cc1ccc(C2=CCC(C)(C)c3cc(C(=O)C=Cc4ccc(C(=O)O)cc4)ccc32)cc1 [Compound 101, 4-[3-oxo-3-(7,8-dihydro-5-(4-methylphenyl)-8,8-dimethyl-2-naphthalenyl)-1-propenyl]-benzoic acid] | 143 | 750 | 637 |
| CC1(C)CC=C(c2ccccc2)c2ccc(C(=O)C=Cc3ccc(C(=O)O)cc3)cc21 [Compound 103, 4-[3-oxo-3-(7,8-dihydro-5-phenyl-8,8-dimethyl-2-naphthalenyl)-1-propenyl]-benzoic acid] | 273 | 301 | 261 |
